Tests used:
[1] = tested on: auditory nerve; assay: Measurements of compound action potentials (CAP) of the auditory nerve after local administration; format: in vivo, rat
Text: In the experiments adult female Wistar rats (Charles River, Sulzfeld, Germany) in the age of 2 to 4 months were used.
To get an access to the inner ear (cochlea) the middle ear is opened by surgery: A small opening behind the ear drum enables the access to the round window of the cochlea, in the massive bone of the bony labyrinth this is the only non-traumatic access to the inner ear. A silver wire electrode having a surface melted silver pearl is carefully positioned through the opening on the membrane of the round window, secured with tissue glue and the opening is closed with dental cement. The silver wire is conducted in the neck of the animal through the skin towards the outside and can then directly be connected to the electrophysiology amplifier for the measurements. The direct electrical access through the CAP electrode enables the direct largely interference-free down lead of the compound potentials of the auditory nerves resulting from an acoustic stimulation. In the signal response, besides the compound action potentials of the auditory nerves (CAP), also the formation of the excitation in the outer hair sense cells (OHC) can be detected as cochlea microphone potentials (CM). These three potentials in the measurements in vivo provide information on: 1) the activity of the auditory nerve close to the threshold up to high levels of acoustic pressure and, therefore, also on the modulation of the transmission, which is mediated by a glycinergic efferent feedback to the afferences of the IHCs, 2) the integrity of the IHCs (via the course of the SPs at increasing levels of acoustic pressures), 3) the amplification by the OHC (through the phase synchronicity of the CM signals with the auditory stimulus).
For this purpose the compound action potentials were activated by different sound stimuli (broadband click stimuli, pure sounds having frequencies of between 4 and 32 kHz, and degrees of loudness from 0 to 100 dB SPL).

[2] = tested on: inner ear; details: chronic local administration to the inner ear of guinea pigs; high frequencies; cited from earlier work

| SMILES | amplitude of the CAP signals two days after local administration ([1]; 2 days after LA, high and low degrees of loudness, in relation to the untreated condition) | CAP amplitudes at high degrees of loudness after local administration ([1]; local administration at round window niche, taurine 5 μl of a 50 mM solution, strychnine 5 μl of a 10 mM solution, high degrees of loudness) | CAP amplitudes at low to medium degrees of loudness after local administration ([1]; local administration at round window niche, taurine 5 μl of a 50 mM solution, low to medium degrees of loudness) | amplitude of the CAP signal within 1-3 hours after local administration ([1]; within 1-3 hours after local administration, measurements at 8 kHz, FIG. 7) | efferent activity and threshold shift after acoustic trauma [2] |
| --- | --- | --- | --- | --- | --- |
| NCCS(=O)(=O)O [taurine] | still reduced | overlapping of the CAP amplitude function | increase slower | reduction of the amplitude of the CAP signals | – |
| O=C1C[C@@H]2OCC=C3CN4CC[C@]56c7ccccc7N1[C@H]5[C@H]2[C@H]3C[C@H]46 [strychnine] | – | – | – | – | disrupts efferent activity and results in a permanent threshold shift |

Reference: patent publication US20110077239A1, “GLYCINE RECEPTOR AGONISTS FOR THE TREATMENT OF PHANTOM PHENOMENA” (priority 2007, published 2011)
